Data reported in publication PMC7238241, “Lack of Correlation between In Vitro and In Vivo Studies on the Inhibitory Effects of (‒)-Sophoranone on CYP2C9 Is Attributable to Low Oral Absorption and Extensive Plasma Protein Binding of (‒)-Sophoranone” (Pharmaceutics, 2020).
Where two headings read alike, the source gives them in different places. Values belong to the compound of their own block, whether it stands above or below them.

Key:
[1] = Effects of SPN on the pharmacokinetics of diclofenac in rats; conditions: male, Sprague-Dawley, rat, plasma, po, 2 mg/kg, oral diclofenac 2 mg/kg, n = 6; for AUC(0-t): AUCt; for AUC(0-t) / AUC(0-inf) / Cmax / Tmax: rats; for Tmax: median (ranges); for half-life: t1/2, rats
Procedure: (§4) The carotid arteries of each rat were cannulated with a polyethylene tube (Clay Adams, Franklin Lakes, NJ, USA) for blood sampling. Each rat was individually housed in a rat metabolic cage and allowed to recover from anesthesia for 4–5 h prior to the start of the experiment. […] SPN was suspended in dimethylsulfoxide:PEG400:distilled water (5:60:35, v/v/v) and administered by oral gavage at a dose of 75 mg/kg in a volume of 5 mL/kg. […] The blood samples were immediately centrifuged at 13,000× g for 5 min at 4 °C. The plasma samples were divided into two Eppendorf tubes by 50 μL and stored at −80 °C until LC-MS/MS analysis.
(§5) Briefly, 50 μL aliquots of plasma were extracted with 300 μL aliquots of acetonitrile containing chlorpropamide (internal standard), followed by LC-MS/MS (Shimadzu Corporation). Chromatographic separation was performed on a Phenomenex Luna C18 column (100 × 2.00 mm; 3.0 μm). The isocratic mobile phase consisted of 0.1% formic acid in distilled water (A) and 0.1% formic acid in acetonitrile (B) (45:55, v/v), with a flow rate of 0.3 mL/min. […] The data acquisition was computed using LabSolutions LCMS Ver.5.6 (Shimadzu Corporation).
(§6) Pharmacokinetic parameters were calculated by a non-compartmental analysis using WinNonlin Professional software (version 5.2, Pharsight Corp., Mountain View, CA, USA) that used the total area under the plasma concentration–time curve from time zero to infinity (AUC∞) or the last measured time (AUCt). The logarithmic trapezoidal rule was used during the declining plasma level phase and the linear trapezoidal rule was used for the rising plasma-level phase. The peak plasma concentration (Cmax) and time to reach Cmax (Tmax) were read directly from the experimental data. Statistically significant differences were recognized at p < 0.05.

[2] = male, Sprague-Dawley, rat, in vivo, po, 2 mg/kg
Procedure: as §4, §5, §6

in vivo = conditions: male, Sprague-Dawley, rat, po, 2 mg/kg
Procedure: as §4, §5, §6

CYP2E1 = target: T1, CYP2E1 (Homo sapiens, UniProt P05181); test: Reversible CYP2E1 inhibition, cocktail assay (chlorzoxazone 6-hydroxylase) in human liver microsomes; assay type: biochemical
T1 construct: tissue Corning Life Sciences; host or cells: pooled human liver microsomes, 150 donors
Procedure: (§1) The inhibitory effects of SPN on CYP1A2, CYP2A6, CYP2B6, CYP2C8, CYP2C9, CYP2C19, CYP2D6, CYP2E1, and CYP3A4 were evaluated in pooled human liver microsomes through the use of specific CYP probe substrates (cocktail assay), as previously described with a slight modification. Concentrations of each CYP probe in Table 1 were used close to their reported Km values.
(§2) Briefly, a 90-µL incubation mixture, including pooled human liver microsomes (final concentration 0.1 mg/mL), 50 mM phosphate buffer (pH 7.4), each CYP-probe substrate cocktail set, and SPN (0–50 μM), was pre-incubated for 5 min at 37 °C. SPN was dissolved in methanol and spiked into the incubation mixture to a final concentration of 0.5% methanol. All P450-selective substrates (except coumarin due to solubility) were dissolved in methanol and serially diluted with methanol to the required concentrations, and the organic solvent was subsequently evaporated under a gentle stream of N2 gas to minimize the effects of organic solvents on CYP activities. On the other hand, coumarin dissolved in 50 mM phosphate buffer (pH 7.4) was directly added into the mixed tube. The reaction was initiated by adding 10-µL aliquot of NADPH-generating system (1.3 mM NADP^+, 3.3 mM glucose 6-phosphate, 3.3 mM MgCl2, and 0.4 unit/mL glucose-6-phosphate dehydrogenase) before 15 min incubation at 37 °C in a shaking water bath. […]
(§3) The IC50 values were calculated via nonlinear least-squares regression analysis from logarithmic plots of inhibitor concentration versus percentage of activity remaining after inhibition, using SigmaPlot (ver. 14.0; Systat Software Inc, Chicago, IL, USA). The Ki values were determined from the equations for a single substrate single inhibitor model and the software available in the SigmaPlot Enzyme Kinetics module. Competitive, non-competitive, uncompetitive, or mixed inhibition models were evaluated and ranked according to the best fit based on Akaike Information Criterion (AIC) values. […]

[3] = cited from earlier work
CYP2C8 = conditions: in humans; cited from earlier work
CYP1A2 = conditions: not in vivo because of high plasma protein binding; cited from earlier work
CYP2A6 = target: T2, CYP2A6 (Homo sapiens, UniProt P11509); test: Reversible CYP2A6 inhibition, cocktail assay (coumarin 7-hydroxylase) in human liver microsomes; assay type: biochemical
T2 construct: tissue Corning Life Sciences; host or cells: pooled human liver microsomes, 150 donors
T2 sequence (P11509 1-494): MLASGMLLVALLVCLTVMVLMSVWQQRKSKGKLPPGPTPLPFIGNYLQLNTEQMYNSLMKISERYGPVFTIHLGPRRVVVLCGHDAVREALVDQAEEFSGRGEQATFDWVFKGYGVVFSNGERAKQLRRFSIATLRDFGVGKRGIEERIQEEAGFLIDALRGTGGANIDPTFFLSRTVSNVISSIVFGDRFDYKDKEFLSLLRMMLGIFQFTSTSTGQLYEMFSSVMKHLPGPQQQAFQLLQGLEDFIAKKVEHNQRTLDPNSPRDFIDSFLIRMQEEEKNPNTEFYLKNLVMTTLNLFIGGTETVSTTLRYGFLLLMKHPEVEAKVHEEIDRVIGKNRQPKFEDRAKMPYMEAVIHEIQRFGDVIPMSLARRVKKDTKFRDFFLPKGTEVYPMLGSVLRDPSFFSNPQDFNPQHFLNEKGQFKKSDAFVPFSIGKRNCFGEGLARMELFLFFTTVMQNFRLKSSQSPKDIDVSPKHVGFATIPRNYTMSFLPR
Procedure: as §1, §2, §3

[4] = Bi-directional Caco-2 cell permeability; assay type: in vitro ADME; conditions: human, Caco-2; 10 μM, 2 h, n = 3
Procedure: Caco-2 cell permeability was assessed to predict the oral absorption of SPN. Cell culture and transport studies were performed as previously described. Briefly, for the bi-directional transport studies, the cells were seeded at a density of 1 × 10^5 cells/well, and the cell medium was replaced until they formed confluent monolayers. On the 25th day, the cell monolayers were washed with pre-warmed HBSS buffer. […] Before the experiment, the integrity of the cell monolayers was evaluated by measuring the transepithelial electrical resistance using a Millicell ohmmeter. After 2 h incubation at 37 °C, samples were withdrawn from both sides, respectively. All samples were stored at −80 °C until LC-MS/MS analysis, and all experiments were performed in triplicate.
The apparent permeability coefficient (Papp) was calculated using the following equation. Papp = (Vr/C0) × (1/A) × ([Drug]/t) where, Vr is the volume of medium in the receiver chamber, C0 is the donor compartment concentration at time zero, A is the area of the cell monolayer, t is the treatment time of the drug, and [Drug] is the drug concentration in the receiver chamber.

T1 sequence (P05181 whole entry): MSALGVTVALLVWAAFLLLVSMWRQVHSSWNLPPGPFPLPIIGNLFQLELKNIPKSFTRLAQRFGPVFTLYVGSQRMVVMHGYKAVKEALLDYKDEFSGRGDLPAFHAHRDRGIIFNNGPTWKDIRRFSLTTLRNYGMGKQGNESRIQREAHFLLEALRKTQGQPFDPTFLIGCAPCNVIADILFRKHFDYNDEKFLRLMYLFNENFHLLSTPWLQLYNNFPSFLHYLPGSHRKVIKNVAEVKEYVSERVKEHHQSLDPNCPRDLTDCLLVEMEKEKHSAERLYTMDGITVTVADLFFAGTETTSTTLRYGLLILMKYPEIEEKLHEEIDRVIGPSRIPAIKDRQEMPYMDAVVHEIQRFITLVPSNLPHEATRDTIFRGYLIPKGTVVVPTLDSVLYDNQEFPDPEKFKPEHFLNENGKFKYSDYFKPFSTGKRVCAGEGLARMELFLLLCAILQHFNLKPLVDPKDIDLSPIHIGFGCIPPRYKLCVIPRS

AUC(0-t) ([1]; with oral SPN 75 mg/kg): 742 ng·h/mL
AUC(0-t) ([1]; without SPN): 747 ng·h/mL
AUC(0-inf) ([1]; with oral SPN 75 mg/kg): 1130 ng·h/mL
AUC(0-inf) ([1]; without SPN): 1140 ng·h/mL
Cmax ([1]; with oral SPN 75 mg/kg): 173 ± 40.8 ng/mL
Cmax ([1]; without SPN): 180 ± 55.2 ng/mL
Tmax ([1]; with oral SPN 75 mg/kg): 0.25 h
Tmax ([1]; without SPN): 0.167 h
half-life ([1]; with oral SPN 75 mg/kg): 4.93 ± 0.995 h
half-life ([1]; without SPN): 4.63 ± 1.17 h
SMILES: O=C(O)Cc1ccccc1Nc1c(Cl)cc(O)cc1Cl [4′-hydroxydiclofenac]

AUCt [2]: 69.4 ± 2.98 µg·min/mL
AUC(0-t) (in vivo; AUCt): 1060 ng·h/mL
AUC(0-inf) (in vivo; AUC∞): 1200 ng·h/mL
Cmax (in vivo; Cmax): 882 ± 245 ng/mL
Tmax (in vivo; Tmax, median (ranges)): 5 min
half-life (in vivo; t1/2): 2.55 ± 1 h
SMILES: O=C(O)Cc1ccccc1Nc1c(Cl)cccc1Cl [Diclofenac]

IC50 (CYP2E1): 12 ± 3.67 µM
SMILES: CCN(CC)C(=S)S [Diethyldithiocarbamate, reference compound]

Papp B→A at 2 h, 10 µM [4]: 21.5 ± 2.19 ×10⁻⁶ cm/s
SMILES: CC(C)NCC(O)COc1cccc2ccccc12 (centres unmarked) [propranolol, reference compound]

Further lines, the compound ahead of its results:

SMILES: CC(C)(O)c1ccccc1CC[C@@H](SCC1(CC(=O)O)CC1)c1cccc(/C=C/c2ccc3ccc(Cl)cc3n2)c1 [Montelukast]
plasma protein binding ([3]; reference not given): > 99.7%
effect on the pharmacokinetics of the CYP2C8 substrates pioglitazone and rosiglitazone (CYP2C8): no effect

SMILES: Cc1c(Cl)cccc1Nc1ccccc1C(=O)O [Tolfenamic acid]
CYP1A2 inhibition in vitro (CYP1A2): strongly inhibited CYP1A2 in vitro
plasma protein binding [3]: 99.7%

SMILES: NCCc1c[nH]c2ccccc12 [Tryptamine, reference compound]
IC50 (CYP2A6): 2.98 ± 0.635 µM
